What was measured:
Candida sp. [1] = assay: Minimum inhibitory concentration (MIC), disk diffusion method; type: cell-based; details: disks of 50 to 3.12 µg, 42-120 hrs at room temperature
Text: (§1) Agar: Czapek Malt Agar (Himedia laboratories Ltd.) was used for culturing Microsporum gypseum, Trichophyton mentagrophytes T. tonsurans, T. violaceum, Aspergillus fresenii and A. niger. Mycological Agar (Himedia Laboratories Ltd) was used for Cryptococcus neoformans and Candida sp.
(§2) Pathogenic fungal strains of yeast and filamentous fungi identified and gifted by Dr. Savio from Goa Medical College, Bambolim, were used for the test. Strains of Aspergillus were isolated from the infected wheat bread with sterile needle; fungal material was surface sterilized using 0.5 % sodium hypochlorite for 2-3 minutes, and then washed with small brush in sterile distilled water. Washed fungal material was transferred using needle into the sterile culture media and subcultured for purification by following standard methods (Collins and Taylor, 1967). Taxonomic identification was done by using various standard keys (Ainswort et al., 1973; Onion et al., 1981) and identification confirmed by Alka Pandey of Agarkar Research Institute, Pune.
(§3) Yeast strains (Candida sp. and Cryptococcus neoformans) were maintained by single colony transfer on mycological agar (Himedia Laboratories Ltd) at the refrigeration temperature (3-5°C). Filamentous fungi were maintained on Czapek Malt agar slants at refrigeration temperature (3-5°C), until needed for the assay.
(§4) Innocula were adjusted to 100 µl of Cryptococcus neoformans, Candida sp., Microsporum gypseum, Trichophyton tonsurans, T. violaceum and Trichophyton mentagrophytes and spread on the appropriate plates, excess moisture was allowed to absorb for 10 minutes before applying disks. Immediately prior to the assay, the testing compound of formula 1, object of the present invention, the reference compounds amphotericin B and nystatin, potency approx:750µ/mg and 4800USPunit/mg respectively, were reconstituted in triplicate in dimethylsulfoxide. […] From the stock solution 10 µl were spread on the paper disk so as to obtain final concentration of 50 µg disc^-1, 25µg disc^-1, 12.5 µg disc^-1, 6.25 µg disc^-1 and 3.12 µg disk^-1. Disks were dried at reduced pressure in the dessicator, at 28-29°C and applied to inoculated plates.
(§5) In testing, the compound of formula 1 was reconstituted in dimethylsulfoxide (DMSO) immediately prior to all assays. Dimethylsulfoxide (DMSO) alone had no detectable inhibitory effect on any of the tested microbes. Compound of formula 1 was tested against a diverse collection of yeast and filamentous fungi, some of which are resistant to the reference compound nystatin. Filamentous fungi were nystatin resistant.

Cryptococcus neoformans [2] = assay: as above; type: cell-based; details: disks of 50 to 3.12 µg, 42-120 hrs at room temperature
Text: as §1, §2, §3, §4, §5

[3] = tested on: Trichophyton mentagrophytes; assay: as above; type: cell-based; details: disks of 50 to 3.12 µg, 42-120 hrs at room temperature
Text: as §1, §2, §3, §4, §5

T. tonsurans [4] = assay: as above; type: cell-based; details: disks of 50 to 3.12 µg, 42-120 hrs at room temperature
Text: as §1, §2, §3, §4, §5

Aspergillus fresenii [5] = assay: as above; type: cell-based; details: disks of 50 to 3.12 µg, 42-120 hrs at room temperature
Text: as §1, §2, §3, §4, §5

T. violaceum [6] = assay: as above; type: cell-based; details: disks of 50 to 3.12 µg, 42-120 hrs at room temperature
Text: as §1, §2, §3, §4, §5

Microsporum gypseum [7] = assay: as above; type: cell-based; details: disks of 50 to 3.12 µg, 42-120 hrs at room temperature
Text: as §1, §2, §3, §4, §5

Candida sp. [8] = assay: Disk diffusion assay, zone of inhibition; type: cell-based; details: 250 µg. disk^-1, incubated 42-120 hrs at room temperature
Text: as §1, §2, §3
(§6) Disk diffusion assay: The disk diffusion assay was used for screening of antifungal activity of the compound. The stock solution for the test was prepared by dissolving 5 mg of the compound of formula 1 in 200 µl dimethylsulphoxide (DMSO). From the stock solution 10 µl were spread on the paper disc so as to obtain the final concentration of 250 µg disk^-1. Control disk was applied reconstituted with only dimethylsulphoxide and were dried at 28-29°C. Completely dried disk was applied to innoculated plates. The plates were incubated at room temperature for the period between 42- 120 hrs. to obtain maximum growth in the culture media. The zones of inhibition around the disks were measured.

Cryptococcus neoformans [9] = assay: Disk diffusion assay, zone of inhibition; type: cell-based; details: 250 µg. disk^-1, incubated 42-120 hrs at room temperature
Text: as §1, §2, §3, §6

[10] = tested on: Trichophyton mentagrophytes; assay: Disk diffusion assay, zone of inhibition; type: cell-based; details: 250 µg. disk^-1, incubated 42-120 hrs at room temperature
Text: as §1, §2, §3, §6

Aspergillus niger [11] = assay: Disk diffusion assay, zone of inhibition; type: cell-based; details: 250 µg. disk^-1, incubated 42-120 hrs at room temperature
Text: as §1, §2, §3, §6

T. tonsurans [12] = assay: Disk diffusion assay, zone of inhibition; type: cell-based; details: 250 µg. disk^-1, incubated 42-120 hrs at room temperature
Text: as §1, §2, §3, §6

Aspergillus fresenii [13] = assay: Disk diffusion assay, zone of inhibition; type: cell-based; details: 250 µg. disk^-1, incubated 42-120 hrs at room temperature
Text: as §1, §2, §3, §6

T. violaceum [14] = assay: Disk diffusion assay, zone of inhibition; type: cell-based; details: 250 µg. disk^-1, incubated 42-120 hrs at room temperature
Text: as §1, §2, §3, §6

Microsporum gypseum [15] = assay: Disk diffusion assay, zone of inhibition; type: cell-based; details: 250 µg. disk^-1, incubated 42-120 hrs at room temperature
Text: as §1, §2, §3, §6

Aspergillus niger [16] = assay: Minimum inhibitory concentration (MIC), disk diffusion method; type: cell-based; details: disks of 50 to 3.12 µg, 42-120 hrs at room temperature
Text: as §1, §2, §3, §4, §5

Cladosporium cucumerinum = details: TLC bioassay; cited from earlier work

Row | Compound | MIC (Candida sp. [1]) | MIC (Cryptococcus neoformans [2]) | MIC [3] | MIC (T. tonsurans [4]) | MIC (Aspergillus fresenii [5]) | MIC (T. violaceum [6]) | MIC (Microsporum gypseum [7]) | zones of inhibition (Candida sp. [8]) [mm] | zones of inhibition (Cryptococcus neoformans [9]) [mm] | zones of inhibition [10] [mm] | zones of inhibition (Aspergillus niger [11]) [mm] | zones of inhibition (T. tonsurans [12]) [mm] | zones of inhibition (Aspergillus fresenii [13]) [mm] | zones of inhibition (T. violaceum [14]) [mm] | zones of inhibition (Microsporum gypseum [15]) [mm] | MIC (Aspergillus niger [16]) | antifungal at (Cladosporium cucumerinum) [µg]
1 | 3-O-α-rhamnopyranosyl-rhamnopyranosyl-glucopyranosyl-glucoronopyranosylgluco-pyrano side 16 α-hydroxy-13, 28-epoxy oleanane [Compound 1] | 6.25 -12.5 µg. disk^-1 | 6.25 -12.5 µg. disk^-1 | 25 - 50 µg. disk^-1 | 12.5 - 25 µg. disk^-1 | 25 -50 µg. disk^-1 | 25 - 50 µg. disk^-1 | 12.5 - 25 µg. disk^-1 | 9 | 9 | 12 | 4 | 14 | 10 | 13 | 14 |  | 
2 | C[C@@H]1[C@H](O)[C@@H](C)/C=C/C=C/C=C/C=C/C=C/C=C/C=C/[C@H](O[C@@H]2O[C@H](C)[C@@H](O)[C@H](N)[C@@H]2O)C[C@@H]2O[C@](O)(C[C@@H](O)C[C@@H](O)[C@H](O)CC[C@@H](O)C[C@@H](O)CC(=O)O[C@H]1C)C[C@H](O)[C@H]2C(=O)O [Amphotericin B, reference compound] | 3.12 - 6.25 µg. disk^-1 | 3.12 - 6.25 µg. disk^-1 | 6.25 - 12.5 µg. disk^-1 | 6.25 - 12.5 µg. disk^-1 | 12.5 -25 µg. disk^-1 | 6.25 -12.5 µg. disk^-1 | 6.25 -12.5 µg. disk^-1 |  |  |  |  |  |  |  |  | 12.5 -25 µg. disk^-1 | 
3 | C[C@@H]1[C@H](O)[C@@H](C)/C=C/C=C/CC/C=C/C=C/C=C/C=C/C(O[C@H]2O[C@H](C)[C@@H](O)[C@H](N)[C@@H]2O)CC2O[C@](O)(CC(O)C(O)CCC(O)CC(O)CC(O)CC(=O)O[C@H]1C)CC(O)C2C(=O)O (some centres unmarked) [Nystatin] | 6.25 -12.5 µg. disk^-1 | 6.25 - 12.5 µg. disk^-1 |  |  |  |  |  |  |  |  |  |  |  |  |  |  | 
4 | Sakurasaponin |  |  |  |  |  |  |  |  |  |  |  |  |  |  |  |  | 1

— patent EP1373298B1, “A COMPOSITION CONTAINING NOVEL COMPOUND CORNICULATONIN HAVING ANTIFUNGI PROPERTIES AND A PROCESS FOR PREPARING THE SAME” (COUNCIL OF SCIENTIFIC AND INDUSTRIAL RESEARCH, priority 2001, dated 2002)
